We go through eight compounds from patent US6849633B2, “Pyrazole derivative, production process thereof, and pest control agent containing the same as active ingredient” (Nihon Nohyaku Co., Ltd., priority 1999, dated 2005).

What all share (format): in vivo
Data set [1] concerns larvae of brown rice planthopper (Nilaparvata lugens). Description: Insecticidal effect on larvae of brown rice planthopper, rice roots in agent solution (systemic, Test Example 6). The conditions noted are these: for Death Rate (%) at Each Concentration of Active Ingrediet: 4th day; for insecticidal activity through systemic property (in words): summary of root-uptake test against brown rice planthopper. As to the method:
(§1) Insecticidal Effect on Larvae of Brown Rice Planthopper (Nilaparvata lugens)
Roots of young rice seedlings (height: about 10 cm) planted in a plastic cup were washed with water and soil was washed away so as not to damage the fine roots. The stem was pinched by a urethane tip (diameter: 3 cm, height: 2 cm) having a cut line and the roots were inserted into an Erlenmeyer flask to which 50 ml of an agent solution (an aqueous diluted solution of agricultural and horticultural insecticide of the invention prepared in accordance with Formulation Example 1) was placed beforehand (2 to 3 young rice seedlings/flask). The urethane tip was wedged into the mouse of the flask to fix the rice seedlings. A glass tube (diameter: 3 cm, height: 5 cm) was placed thereon, wedged into the urethane tip, and fixed with a tape. The flask in such state was kept in a constant temperature room at 25° C. for 3 days. Five larvae of brown rice planthopper were placed in the glass tube and then the tube was capped with a urethane tip, followed by keeping in the constant temperature room at 25° C. (duplicates at a concentration). The mortality and agony of the larvae were examined on 4th day after the treatment to obtain a death rate (%) taking an agonizing insect as a ½ dead insect. This test was carried out on three agent solutions different in the concentration of the active ingredient. The results are shown in Table 7 (the compound numbers in the table correspond to the numbers in Table 1).
As comparative compounds I to V, each compound having a structure shown below (Compound I described in Japanese Patent Laid-Open No. 316771/1988, Compounds II and III described in Examples of WO9845274, and Compounds IV and V included in the claim of WO9845274 but not included in the claim of the present application) was similarly subjected to the test. [drawing 36]
Brown rice planthopper (Nilaparvata lugens) is a highly problematic pest insect species which is harmful as described in Test Example 1, but a sufficient effect can not be attained by the application method of spraying an agent to stems and leafs, provided that the detection is delayed or that an enough amount of the agent is not spread to the roots.
Since this insect species has a characteristic of making its habitat around the roots of rice plant or the like and harming the plant through sucking fluid, more efficient method of controlling the insect may be a method of treating the surface of soil with an agent (granule treatment) before the outbreak of the species occurs widely. However, in order to attain a high controlling effect, a systemic property (a penetrating and migrating property) into a plant body is required as the nature of the agent.

Data set [2] relates to larvae of common cutworm (Spodoptera litura). As to the kind of experiment: Insecticidal effect on larvae of common cutworm (leaf disc, Test Example 3). The conditions noted are these: 500 ppm, cabbage leaf disc soaked 1 minute, 3-instar larvae, 25° C., after 5 days. Here is the method: Insecticidal Effect on Larvae of Common Cutworm (Spodoptera litura)
(§2) A disc (6 cm in diameter) cut out of a cabbage leaf was soaked for 1 minute in an aqueous suspension of an agricultural and horticultural insecticide of the invention prepared in accordance with Formulation Example 1, air-dried, and placed in a plastic cup (inner diameter: 7 cm). Five 3-instar larvae of Spodoptera litura were set free in the cup (duplicates at a concentration). The cup was kept in a constant temperature room at 25° C., and the death and agony of the larvae were examined after 5 days from the treatment to obtain a death rate (%) taking an agonizing insect as a ½ dead insect. The results obtained are shown in Table 4 (the compound numbers in the Table below correspond to the numbers in Table 1).

The subject of data set [3] is larvae of brown rice planthopper (Nilaparvata lugens). As to the kind of experiment: Insecticidal effect on larvae of brown rice planthopper (spray, Test Example 1). The note with it: 500 ppm, emulsion sprayed, 4th instar larvae, 25° C., after 5 days; agonizing insect counted as 1/2 dead. Here is the method: as §1
A rice seedling was planted in a glass cylinder (inner diameter: 3 cm×length: 17 cm), and five 4th instar larvae of brown rice planthopper were set free therein. An agricultural and horticultural insecticide of the invention was prepared in accordance with Formulation Example 3 and diluted with water, and 0.5 ml of the resulting emulsion was sprayed into the cylinder by means of a spraying tower (manufactured by Mizuho Rika) (duplicates at a concentration). The cylinder was kept in a constant temperature room at 25° C., and the mortality and agony of the larvae were examined after 5 days from the treatment to obtain a death rate (%) taking an agonizing insect as a ½ dead insect. The results obtained are shown in Table 2 (the compound numbers in Table 2 correspond to the numbers in Table 1).

In data set [4] the test system is cat flea. As to the kind of experiment: Insecticidal effect on cat flea (treated filter, Test Example 8). The note with it: 0.7 mg/filter; mortality examined on 1st day and 2nd day after treatment. An excerpt:
Insecticidal Effect on Cat Flea
After drying, the filter was placed on the bottom of a cylinder (diameter: 10 cm×height: 30 cm). Ten fleas were set free therein and the mortality was examined on 1st day and 2nd day after the treatment to calculate a death rate (%) based on the results. The results are shown in Table 9 (the compound numbers in the table correspond to the numbers in Table 1).

The subject of data set [5] is larvae of diamond back moth (Plutella xylostella). Description: Insecticidal effect on larvae of diamond back moth (leaf disc, Test Example 2). The note with it: 500 ppm, cabbage leaf disc soaked 1 minute, 3-instar larvae, 25° C., after 4 days. As to the method:
Insecticidal Effect on Larvae of Diamond Back Moth (Plutella xylostella)
as §2, with “of the” for “of an”, “of Plutella xylostella” for “of Spodoptera litura”, “after 4” for “after 5”, “Table 3” for “Table 4”

Data set [6] relates to larvae of green peach aphid (Myzus persicae). As to the kind of experiment: Insecticidal effect on larvae of green peach aphid (leaf dip, Test Example 5). The conditions noted are these: 500 ppm, leaves dipped about 5 seconds, 25° C., 4th day after treatment. Here is the method:
Insecticidal Effect on Larvae of Green Peach Aphid (Myzus persicae)
Water was put in a screw bottle (volume: 10 ml), and a leafstalk of Japanese radish was placed therein and inoculated with 5 to 6 imagoes of Myzus persicae per leave. After the inoculation, the bottle was put in a glass cylinder (diameter: […]; height: 15 cm) with a mesh cover, and the insects were let to proliferate in a constant temperature room kept at 25° C. for 3 days. The imagoes on the leaves were removed, and the leaves were dipped in an aqueous dilusion of an agricultural and horticultural insecticide prepared of the invention in accordance with Formulation Example 3 for about 5 seconds and then returned into the glass cylinder (duplicates at a concentration). The cylinder was kept in the constant temperature room at 25° C., and the number of the insects on the leaves was counted on the 4th day after the treatment to obtain a death rate (%). The results obtained are shown in Table 6 (the compound numbers in the Table correspond to the numbers in Table 1).

For data set [7], the system named is imagoes of adzuki bean weevil (Callosobruchus chinensis). As to the kind of experiment: Insecticidal effect on imagoes of adzuki bean weevil (spray, Test Example 4). The note with it: 500 ppm, emulsion sprayed, 25° C., after 4 days. Here is the method: Insecticidal Effect on Imagoes of Adzuki Bean Weevil (Callosobruchus chinensis)
Two adzuki beans were put in a glass cylinder (inner diameter: 3 cm×length: 15 cm), and 10 imagoes of Callosobruchus chinensis were set free therein. An agricultural and horticultural insecticide of the invention was prepared in accordance with Formulation Example 3 and diluted with water, and 0.3 ml of the resulting emulsion was sprayed in the glass cylinder by means of a spray tower (manufactured by Mizuho Rika) (duplicates at a concentration). The cylinder was kept in a constant temperature room at 25° C., and the mortality and agony of the larvae were examined after 4 days from the treatment to obtain a death rate (%) taking an agonizing insect as a ½ dead insect. The results obtained are shown in Table 5 (the compound numbers in the Table correspond to the numbers in Table 1).

The test system of data set [8] is Oryzias latipes. As to the kind of experiment: Test on toxicity to fish using Oryzias latipes (Test Example 7). The conditions noted are these: death rate, 0.5 ppm aqueous solution, adult Oryzias latipes, after 48 hours. As to the method: Test on Toxicity to Fish Using Oryzias latipes
This test example is one example for examining safety of agricultural and horticultural insecticides to the environment.
Ten mg of each compound was dissolved in 1 ml of dimethyl sulfoxide and a 0.05 ml portion thereof was added to a glass beaker containing 1 liter of distilled water to obtain a 0.5 ppm aqueous solution. Into the aqueous solution was put five fishes of Oryzias latipes (adult, average weight: about 360 mg) and the mortality was examined after 48 hours to calculate a death rate (%) (5 fishes per 1 lot/beaker, single run). The results are shown in Table 8 (the compound numbers in the table correspond to the numbers in Table 1).
Similar to Test Example 6, Compound I described in Japanese Patent Laid-Open No. 316771/1988, Compounds II and III described in Examples of WO9845274, and Compounds IV and V included in the claim of WO9845274 but not included in the claim of the present application were subjected to the test, as comparative compounds.

Setting [9] is: 0.2 ppm agent solution at rice roots.
Where [10] appears, read: 0.8 ppm agent solution at rice roots.
[11] abbreviates: 3.1 ppm agent solution at rice roots.

In the case of `N#Cc1nn(-c2c(Cl)cc(C(F)(F)F)cc2Cl)c(NCc2cnccn2)c1[S+]([O-])C(F)(F)F` (stereo not drawn) [Compound 5, 1-(2,6-dichloro-4-trifluoromethylphenyl)-4-trifluoromethylsulfinyl-5-(pyrazin-2-ylmethylamino)pyrazole-3-carbonitrile], the “Death Rate (%) at Each Concentration of Active Ingrediet” value (“Death Rate (%) at Each Concentration” below) in data set [1] (setting [9]), in data set [1] (setting [10]) and in data set [1] (setting [11]) was 100% in each case. For the same compound, the “Death Rate (%)” value in data set [2], in data set [3], in data set [4], in data set [5], in data set [6] and in data set [7] was 100% throughout.
Consider `N#Cc1nn(-c2c(Cl)cc(C(F)(F)F)cc2Cl)c(NCc2ccncc2)c1SC(F)(F)F` [II], for which the “Toxicity to fish (%)” value in data set [8] is given as 80%. Moreover, the “Death Rate (%) at Each Concentration” value is listed as 20% in data set [1] (setting [10]) and 50% in data set [1] (setting [11]). In addition, the “insecticidal activity through systemic property (in words)” value in data set [1] is reported as “obviously inferior effect”.
Take `C[S+]([O-])c1c(C#N)nn(-c2c(Cl)cc(C(F)(F)F)cc2Cl)c1NCc1cnccn1` (stereo not drawn) [Compound 1, 1-(2,6-dichloro-4-trifluoromethylphenyl)-4-methylsulfinyl-5-(pyrazin-2-ylmethylamino)pyrazole-3-carbonitrile]: the “Toxicity to fish (%)” value in data set [8] was 0%. Besides, the “Death Rate (%) at Each Concentration” value in data set [1] (setting [9]), in data set [1] (setting [10]) and in data set [1] (setting [11]) was 100% each time. The “Death Rate (%)” value in data set [3], in data set [5], in data set [6] and in data set [7] was 100% in each case.
Consider `N#Cc1nn(-c2c(Cl)cc(C(F)(F)F)cc2Cl)c(NCc2cc[n+]([O-])cc2)c1SC(F)(F)F` [III], for which the “Toxicity to fish (%)” value in data set [8] is listed as 60%. For the same compound, the “Death Rate (%) at Each Concentration” value in data set [1] (setting [9]) came to 92%; in data set [1] (setting [10]), 100%; in data set [1] (setting [11]) it was 100%.
On to “1-(2,6-dichloro-4-trifluoromethylphenyl)-4-trifluoromethylsulfinyl-5-(1-oxy-pyridin-3-ylmethylamino)pyrazole-3-carbonitrile [Compound 14]”, for which the “Toxicity to fish (%)” value in data set [8] was found to be 0%. The “Death Rate (%) at Each Concentration” value in data set [1] (setting [9]), in data set [1] (setting [10]) and in data set [1] (setting [11]) was 100% throughout. The “Death Rate (%)” value in data set [2], in data set [3], in data set [5], in data set [6] and in data set [7] was 100% in each case.
Consider `N#Cc1nn(-c2c(Cl)cc(C(F)(F)F)cc2Cl)c(N)c1[S+]([O-])C(F)(F)F` (stereo not drawn) [I], for which the “Toxicity to fish (%)” value in data set [8] is listed as 100%. Besides, the “Death Rate (%) at Each Concentration” value in data set [1] (setting [9]) came to 33%; in data set [1] (setting [10]), 67%; in data set [1] (setting [11]) it was 92%. Further, in data set [1], the “insecticidal activity through systemic property (in words)” value is given as “obviously inferior effect”.
`CSc1c(C#N)nn(-c2c(Cl)cc(C(F)(F)F)cc2Cl)c1NCc1cnccn1` [IV]: the “Toxicity to fish (%)” value in data set [8] was determined as 100%. For the same compound, the “Death Rate (%) at Each Concentration” value in data set [1] (setting [9]), in data set [1] (setting [10]) and in data set [1] (setting [11]) was 100% each time. The “insecticidal activity through systemic property (in words)” value in data set [1] is on record as “high systemic property”.
`N#Cc1nn(-c2c(Cl)cc(C(F)(F)F)cc2Cl)c(NCc2cnccn2)c1SC(F)(F)F` [V]: the “Toxicity to fish (%)” value in data set [8] came out at 100%. Moreover, the figures for the “Death Rate (%) at Each Concentration” value in data set [1] (setting [9]), in data set [1] (setting [10]) and in data set [1] (setting [11]) were 55%, 80% and 95%, respectively.
